One data set concerns human Notch 1. The experiment in a line: Notch-CBF1 Transactivation Assay (Notch 1). It is filed as cell-based. The following applies: read-out: Notch 1 IC50; Notch-CBF1 transactivation luciferase assay in transfected HeLa cells; some values are an average of N experiments. An excerpt: (§1) Notch-CBF1 Transactivation Assay
(§2) The Notch-CBF1 (C-promoter binding factor I) cell based transactivation assay is based on the ability of the released Notch intracellular domain fragments (NICDs) to function as transcription factors in conjunction with CBF1 and other nuclear factors. Luciferase assays were used to measure the antagonism of Notch-CBF1 transcriptional activity. HeLa cervical cancer cells are transiently co-transfected with pCDNA3.1/Hygro plasmids containing truncated Notch 1, Notch 2, Notch 3, or Notch 4 receptors and a PGL3 luciferase reporter vector containing 4 copies of CBF1 binding site. The cells were then tested for Notch-CBF1 activity in the absence or presence of test compounds. HeLa cells, maintained in DMEM (high glucose with HEPES), 1× glutamine/penicillin/streptomycin and 10% Fetal Bovine serum, were transiently transfected in a T175 Flask (4.5×10^6 cells/flask) using the Monster Transfection Kit (Minis #MIR2906) according to manufacturers specifications. Table 13 denotes respective DNA quantity for the transfections.
(§3) Assay media (5 μL) containing test compounds in final concentrations ranging from 5 μM to 8.4×10^−5 μM (3 fold serial dilutions) were added to the cells and the cell plates were then incubated for 18 hours at 37° C. and 5% CO2. Control wells contained DMSO vehicle (total counts) or 0.5 μM of an in-house small molecule inhibitor (background counts). Duplicates were used for each sample. Luciferase activity was measured after a 20-minute incubation with 50 μl STEADY-GLO® luciferase reagents according to manufacturer's specifications (Promega, Cat. #E2550) and analyzed by Envision plate reader (PerkinElmer, Boston, Mass.).
(§4) The antagonist effect of compounds was expressed as 100×[1−(average sample−average background)/(average total−average background)] where sample is the luciferase activity in the presence of test compound, background is equal to the luciferase activity in the presence of the small molecule inhibitor control and the total is signal induced in DMSO wells.

The subject of a further data set is human Notch 3. The experiment in a line: Notch-CBF1 Transactivation Assay (Notch 3). It is filed as cell-based. The following applies: read-out: Notch 3 IC50; Notch-CBF1 transactivation luciferase assay in transfected HeLa cells; some values are an average of N experiments.
From the text: as §1, §2, §3, §4

The nature of data set [1]: human metabolic stability half-life assay. The settings on record: microsomes, human liver microsomes. As to the method: Metabolic Stability Half-Life Panel
Incubation with Liver Microsomes
A general note: Liver microsomes are vesicles of endoplasmic reticulum, rich in cytochrome P450 enzymes.

The mark [2] stands for this setting: pH 7.4, CYP-mediated metabolic stability half life, NADPH-dependent.
Setting [3] is: pH 7.4, HLM (t1/2, min), CYP-mediated (NADPH-dependent), 0.5 μM compound, 45 min time course, some values are an average of N experiments.

A value given as a limit tells only on which side of the number the result lay.

For the compound `Cc1cc(F)c2c(c1)C(c1ccccc1)=N[C@H](NC(=O)[C@H](CCC(F)(F)F)[C@H](CC1CC1)C(N)=O)C(=O)N2` [Example 17, (2R,3S)-3-(Cyclopropylmethyl)-N-((3S)-9-fluoro-7-methyl-2-oxo-5-phenyl-2,3-dihydro-1H-1,4-benzodiazepin-3-yl)-2-(3,3,3-trifluoropropyl)succinamide], the IC50 (commonly the concentration at which inhibition is half-maximal) in the data set with human Notch 1 came to 9.7 nM; in the data set on human Notch 3, 26.4 nM. The half-life (commonly the time in which the quantity being followed falls by half) at 0.5 µM in data set [1] (setting [2]) is at least 30 min; in data set [1] (setting [3]), 60 min.

For the compound `Cc1ccc2c(c1F)NC(=O)[C@@H](NC(=O)[C@H](CCC(F)(F)F)[C@H](CC1CC1)C(N)=O)N=C2c1ccccc1` [Example 18, (2R,3S)-3-(Cyclopropylmethyl)-N-((3S)-9-fluoro-8-methyl-2-oxo-5-phenyl-2,3-dihydro-1H-1,4-benzodiazepin-3-yl)-2-(3,3,3-trifluoropropyl)succinamide], the IC50 in the data set with human Notch 1 worked out at 6.5 nM; in the data set on human Notch 3 it was 6.9 nM. Also, the half-life at 0.5 µM in data set [1] (setting [2]) is at least 30 min; in data set [1] (setting [3]) it was over 120 min.

On to `Cc1cccc(C2=N[C@H](NC(=O)[C@H](CCC(F)(F)F)[C@H](CC3CC3)C(N)=O)C(=O)Nc3c(F)cccc32)c1` [Example 19, (2R,3S)-3-(Cyclopropylmethyl)-N-((3S)-9-fluoro-5-(3-methylphenyl)-2-oxo-2,3-dihydro-1H-1,4-benzodiazepin-3-yl)-2-(3,3,3-trifluoropropyl)succinamide], for which the IC50 in the data set on human Notch 1 was 2.7 nM; with human Notch 3, 7.2 nM. Also, the half-life at 0.5 µM in data set [1] (setting [2]) is at least 30 min; in data set [1] (setting [3]), 56 min.

Regarding `CN1C(=O)[C@@H](NC(=O)[C@H](CCC(F)(F)F)[C@H](CC2CC2)C(N)=O)N=C(c2ccccc2)c2cccc(F)c21` [Example 20, (2R,3S)-3-(Cyclopropylmethyl)-N-((3S)-9-fluoro-1-methyl-2-oxo-5-phenyl-2,3-dihydro-1H-1,4-benzodiazepin-3-yl)-2-(3,3,3-trifluoropropyl)succinamide], the IC50 was determined as 3.4 nM in the data set on human Notch 1 and 9.1 nM in the data set on human Notch 3. Also, the half-life at 0.5 µM in data set [1] (setting [2]) was at least 30 min; in data set [1] (setting [3]) it was 106 min.

With `COc1cccc2c1NC(=O)[C@@H](NC(=O)[C@H](CCC(F)(F)F)[C@H](CC1CC1)C(N)=O)N=C2c1ccc(Cl)cc1` [Example 21, (2R,3S)—N-((3S)-5-(4-Chlorophenyl)-9-methoxy-2-oxo-2,3-dihydro-1H-1,4-benzodiazepin-3-yl)-3-(cyclopropylmethyl)-2-(3,3,3-trifluoropropyl)succinamide], the IC50 with human Notch 1 and in the data set on human Notch 3 was 2.4 nM each time. The half-life at 0.5 µM in data set [1] (setting [2]) was at least 30 min; in data set [1] (setting [3]), 62 min.

Take `COc1cccc(C2=N[C@H](NC(=O)[C@H](CCC(F)(F)F)[C@H](CC3CC3)C(N)=O)C(=O)Nc3c(F)cccc32)c1` [Example 22, (2R,3S)-3-(Cyclopropylmethyl)-N-((3S)-9-fluoro-5-(3-methoxyphenyl)-2-oxo-2,3-dihydro-1H-1,4-benzodiazepin-3-yl)-2-(3,3,3-trifluoropropyl)succinamide]: the values for the 50% inhibitory concentration (IC50) with human Notch 1 and with human Notch 3 were 12.9 nM and 12.5 nM, respectively. For the same compound, the half-life at 0.5 µM in data set [1] (setting [2]) was at least 30 min; in data set [1] (setting [3]), 32 min.

For `NC(=O)[C@@H](CC1CC1)[C@@H](CCC(F)(F)F)C(=O)N[C@H]1N=C(c2cccc(F)c2)c2cccc(F)c2NC1=O` [Example 23, (2R,3S)-3-(Cyclopropylmethyl)-N-((3S)-9-fluoro-5-(3-fluorophenyl)-2-oxo-2,3-dihydro-1H-1,4-benzodiazepin-3-yl)-2-(3,3,3-trifluoropropyl)succinamide], the 50% inhibitory concentration (IC50) came to 4.8 nM in the data set with human Notch 1 and 8 nM in the data set with human Notch 3. In addition, the half-life at 0.5 µM in data set [1] (setting [2]) was at least 30 min; in data set [1] (setting [3]), 69 min.

For `NC(=O)[C@@H](CC1CC1)[C@@H](CCC(F)(F)F)C(=O)N[C@H]1N=C(c2cccc(Cl)c2)c2cccc(F)c2NC1=O` [Example 24, (2R,3S)—N-((3S)-5-(3-Chlorophenyl)-9-fluoro-2-oxo-2,3-dihydro-1H-1,4-benzodiazepin-3-yl)-3-(cyclopropylmethyl)-2-(3,3,3-trifluoropropyl)succinamide], the IC50 in the data set on human Notch 1 came out at 3.7 nM; in the data set on human Notch 3, 2.7 nM. Further, the half-life at 0.5 µM in data set [1] (setting [2]) was at least 30 min; in data set [1] (setting [3]), 76 min.

Regarding `CCC[C@H](C(N)=O)[C@@H](CCC(F)(F)F)C(=O)N[C@H]1N=C(c2ccc(Cl)cc2)c2cccc(OC)c2NC1=O` [Example 25, (2R,3S)—N-((3S)-5-(4-Chlorophenyl)-9-methoxy-2-oxo-2,3-dihydro-1H-1,4-benzodiazepin-3-yl)-3-propyl-2-(3,3,3-trifluoropropyl)succinamide], the 50% inhibitory concentration (IC50) in the data set with human Notch 1 came to 6.8 nM; with human Notch 3 it was 5.6 nM. Besides, the half-life at 0.5 µM is at least 30 min in data set [1] (setting [2]) and 31 min in data set [1] (setting [3]).

As to `NC(=O)[C@@H](CC1CC1)[C@@H](CCC(F)(F)F)C(=O)N[C@H]1N=C(c2cccc(Cl)c2)c2cccc(Cl)c2NC1=O` [Example 26, (2R,3S)—N-((3S)-9-Chloro-5-(3-chlorophenyl)-2-oxo-2,3-dihydro-1H-benzo[e][1,4]diazepin-3-yl)-3-(cyclopropylmethyl)-2-(3,3,3-trifluoropropyl)succinamide], the IC50 amounted to 1.9 nM in the data set with human Notch 1 and 2.1 nM in the data set on human Notch 3. The figures for the half-life at 0.5 µM in data set [1] (setting [2]) and in data set [1] (setting [3]) were at least 30 min and 96 min, respectively.

For `NC(=O)[C@@H](CC1CC1)[C@@H](CCC(F)(F)F)C(=O)N[C@H]1N=C(c2ccc(Cl)cc2)c2cccc(Cl)c2NC1=O` [Example 27, (2R,3S)—N-((3S)-9-Chloro-5-(4-chlorophenyl)-2-oxo-2,3-dihydro-1H-1,4-benzodiazepin-3-yl)-3-(cyclopropylmethyl)-2-(3,3,3-trifluoropropyl)succinamide], the concentration for half-maximal inhibition (IC50) in the data set with human Notch 1 turned out to be 4.6 nM; in the data set on human Notch 3 it was 1.6 nM. Also, the half-life at 0.5 µM in data set [1] (setting [2]) is at least 30 min; in data set [1] (setting [3]) it was 81 min.

Consider `CCC[C@H](C(N)=O)[C@@H](CCC(F)(F)F)C(=O)N[C@H]1N=C(c2ccc(Cl)cc2)c2cccc(Cl)c2NC1=O` [Example 28, (2R,3S)—N-((3S)-9-Chloro-5-(4-chlorophenyl)-2-oxo-2,3-dihydro-1H-1,4-benzodiazepin-3-yl)-3-propyl-2-(3,3,3-trifluoropropyl)succinamide], for which the 50% inhibitory concentration (IC50) in the data set on human Notch 1 and in the data set with human Notch 3 was 1.7 nM each time. Also, the half-life at 0.5 µM in data set [1] (setting [2]) was at least 30 min; in data set [1] (setting [3]), 39 min.

As to `COc1ccc2c(c1F)NC(=O)[C@@H](NC(=O)[C@H](CCC(F)(F)F)[C@H](CC1CC1)C(N)=O)N=C2c1ccccc1` [Example 29, (2R,3S)-3-(Cyclopropylmethyl)-N-((3S)-9-fluoro-8-methoxy-2-oxo-5-phenyl-2,3-dihydro-1H-1,4-benzodiazepin-3-yl)-2-(3,3,3-trifluoropropyl)succinamide], the concentration for half-maximal inhibition (IC50) stood at 3.1 nM with human Notch 1 and 7.1 nM in the data set on human Notch 3. Further, the half-life at 0.5 µM in data set [1] (setting [2]) is at least 30 min; in data set [1] (setting [3]) it was 99 min.

Take `Cc1cccc(C2=N[C@H](NC(=O)[C@H](CCC(F)(F)F)[C@H](CC3CC3)C(N)=O)C(=O)Nc3c(Cl)cccc32)c1` [Example 30, (2R,3S)—N-((3S)-9-Chloro-5-(3-methylphenyl)-2-oxo-2,3-dihydro-1H-1,4-benzodiazepin-3-yl)-3-(cyclopropylmethyl)-2-(3,3,3-trifluoropropyl)succinamide]: the IC50 in the data set on human Notch 1 came out at 2.5 nM; in the data set with human Notch 3 it was 5.2 nM. The results for the half-life at 0.5 µM in data set [1] (setting [2]) and in data set [1] (setting [3]) were at least 30 min and 74 min, respectively.

The values are drawn from patent publication US9242941B2, “Alkyl, fluoroalkyl-1,4-benzodiazepinone compounds” (BRISTOL-MYERS SQUIBB COMPANY, priority 2012, dated 2016).
